Measured values taken from US20250059172A1, “INDAZOLE COMPOUND AND PHARMACEUTICAL” (NIPPON SHINYAKU CO., LTD., priority 2021, published 2025).
Where a name gives a salt, the structure may show the parent alone.

Legend:
human mPGES-1 = human mPGES-1 (Homo sapiens (Human), UniProt O14684); experiment: mPGES-1 inhibitory activity test; type: biochemical; details: for inhibition at 0.01 µM: 10 nM test compound; for inhibition at 0.1 µM: 100 nM test compound; for IC50: microsomes of CHO-K1 cells expressing human mPGES-1, PGH2 1 μM, PGE2 by HTRF, read-out: mPGES-1 inhibition (IC50 nM)
Sequence of human mPGES-1 (O14684 whole entry): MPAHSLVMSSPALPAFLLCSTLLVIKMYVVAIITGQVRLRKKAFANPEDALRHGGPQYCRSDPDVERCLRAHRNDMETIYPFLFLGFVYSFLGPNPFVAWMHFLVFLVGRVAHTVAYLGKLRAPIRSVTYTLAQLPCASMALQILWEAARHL
Outline: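 PGE2 formation was quantified by HTRF and reported as percent inhibition at 10 and 100 nM compound or as IC50. The 60-second reaction at 4° C used 1 μM PGH2, after a 20-minute 4° C preincubation of compound (1% DMSO final) with glutathione-supplemented (2.5 mM, pH 7.4) microsomes. The microsomes were from transiently transfected CHO-K1 cells expressing human mPGES-1.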

human A549 cells = experiment: Inhibition test of PGE2 production using human A549 cells; type: cell-based; details: IL-1β stimulated A549 cells, 24 h, PGE2 by HTRF, read-out: A549 cell inhibition of PGE2 production IC50
Outline: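 PGE2 (HTRF) and PGF2a (EIA) were quantified in medium after 24 h, 37°C IL-1β stimulation (5 ng/well) of human A549 cells that had received test compound 60 min beforehand (0.1% DMSO, 3% FBS RPMI). IC50 relative to the window between IL-1β-stimulated and unstimulated controls.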

Row | SMILES | inhibition at 0.01 µM (human mPGES-1) [%] | inhibition at 0.1 µM (human mPGES-1) [%] | IC50 (human A549 cells) [nM] | IC50 (human mPGES-1) [nM]
1 | CC(C)(C)C(=O)NCc1ccc(Cl)c(C(=O)Nc2cccc3c2cnn3C2CC2)c1 [Example 284, 2-Chloro-5-{[(2,2-dimethylpropanoyl)amino]methyl}-N-(1-cyclopropyl-1H-indazol-4-yl)benzamide] | 79 |  | 9.6 | 
2 | Cc1cc(-n2ncc3c(NC(=O)c4cc(CNC(=O)C5CCCC5)ccc4Cl)cccc32)ccn1 [Example 235, 2-Chloro-5-{[(cyclopentylcarbonyl)amino]methyl}-N-[1-(2-methylpyridin-4-yl)-1H-indazol-4-yl]benzamide] | 53 | 88 | 6.1 | 
3 | CN(C)CCC(=O)NCc1ccc(Cl)c(C(=O)Nc2cccc3c2cnn3-c2ccc(C(F)(F)F)cc2)c1 [Example 35, 2-Chloro-5-{[(N,N-dimethyl-p-alanyl)amino]methyl}-N-{1-[4-(trifluoromethyl)phenyl]-1H-indazol-4-yl}benzamide hydrochloride] |  |  | 933 | 116
4 | O=C(Nc1cccc2c1cnn2-c1ccc(C(F)(F)F)cc1)c1cc(CNC(=O)C(F)(F)F)ccc1Cl [Example 17, 2-Chloro-5-{[(trifluoroacetyl)amino]methyl}-N-{1-[4-(trifluoromethyl)phenyl]-1H-indazol-4-yl}benzamide] |  |  | 1.6 | 17
5 | Cc1ccc(-n2ncc3c(NC(=O)c4cc(CNC(=O)C5(C(F)(F)F)CC5)ccc4Cl)cccc32)cc1C(F)(F)F [Example 256, 2-Chloro-N-{1-[4-methyl-3-(trifluoromethyl)phenyl]-1H-indazol-4-yl}-5-[({[1-(trifluoromethyl)cyclopropyl]carbonyl}amino)methyl]benzamide] | 88 | 98 | 0.3 | 

The remaining compounds from weak to strong by IC50 (human A549 cells), led by results:

Row | inhibition at 0.01 µM (human mPGES-1) [%] | inhibition at 0.1 µM (human mPGES-1) [%] | IC50 (human A549 cells) [nM] | IC50 (human mPGES-1) [nM] | SMILES
6 |  |  | 183 | 23.6 | Cc1ncccc1-n1ncc2c(NC(=O)c3cc(CNC(=O)C(C)(C)C)ccc3Cl)cccc21 [Example 56, 2-Chloro-5-{[(2,2-dimethylpropanoyl)amino]methyl}-N-[1-(2-methylpyridin-3-yl)-1H-indazol-4-yl]benzamide hydrochloride]
7 |  |  | 72 | 4.7 | Cc1ccc(-n2ncc3c(NC(=O)c4cc(CNC(=O)C(F)(F)F)ccc4Cl)cccc32)cn1 [Example 87, 2-Chloro-N-[1-(6-methylpyridin-3-yl)-1H-indazol-4-yl]-5-{[(trifluoroacetyl)amino]methyl}benzamide hydrochloride]
8 | 70 | 90 | 31.4 |  | CC(C)(CO)C(=O)NCc1ccc(Cl)c(C(=O)Nc2cccc3c2cnn3-c2cscn2)c1 [Example 192, 2-Chloro-5-{[(3-hydroxy-2,2-dimethylpropanoyl)amino]methyl}-N-[1-(1,3-thiazol-4-yl)-1H-indazol-4-yl]benzamide]
9 |  |  | 12.8 | 3.3 | O=C(NCc1ccc(Cl)c(C(=O)Nc2cccc3c2cnn3-c2ccc(C(F)(F)F)cc2)c1)c1ccccc1 [Example 22, 2-Chloro-5-{[(phenylcarbonyl)amino]methyl}-N-{1-[4-(trifluoromethyl)phenyl]-1H-indazol-4-yl}benzamide]
10 | 58 |  | 7.6 |  | O=C(Nc1cccc2c1cnn2-c1ccc(F)cc1)c1cc(CNC(=O)C2CCCC2)ccc1Cl [Example 152, 2-Chloro-5-{[(cyclopentylcarbonyl)amino]methyl}-N-[1-(4-fluorophenyl)-1H-indazol-4-yl]benzamide]
11 |  |  | 2.5 | 8.9 | O=C(CC(F)(F)F)NCc1ccc(Cl)c(C(=O)Nc2cccc3c2cnn3-c2ccc(C(F)(F)F)cc2)c1 [Example 37, 2-Chloro-N-{1-[4-(trifluoromethyl)phenyl]-1H-indazol-4-yl}-5-{[(3,3,3-trifluoropropanoyl)amino]methyl}benzamide]
12 | 74 | 93 | 1 |  | O=C(Nc1cccc2c1cnn2-c1cccc(C(F)(F)F)c1)c1cc(CNC(=O)C2CCCC2)ccc1Cl [Example 219, 2-Chloro-5-{[(cyclopentylcarbonyl)amino]methyl}-N-{1-[3-(trifluoromethyl)phenyl]-1H-indazol-4-yl}benzamide]
